Test results taken from PubChem BioAssay (NCI).
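The compound was tested at five concentrations on cells cultured in 96-well plates, with a 48-hour exposure period. The concentration for full growth arrest is given as TGI.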

Columns and labels:
Test in all cases: DTP human tumour cell line panel, 48 h
U251 CNS = tested on: U251 CNS
RPMI-8226 leukemia = tested on: RPMI-8226 leukemia
SK-MEL-28 melanoma = tested on: SK-MEL-28 melanoma
NCI-H23 lung = tested on: NCI-H23 lung
HS 578T breast = tested on: HS 578T breast
SNB-75 CNS = tested on: SNB-75 CNS
SF-268 CNS = tested on: SF-268 CNS
SW-620 colon = tested on: SW-620 colon
HCT-116 colon = tested on: HCT-116 colon
MALME-3M melanoma = tested on: MALME-3M melanoma
SK-OV-3 ovarian = tested on: SK-OV-3 ovarian
NCI-H226 lung = tested on: NCI-H226 lung
DU-145 prostate = tested on: DU-145 prostate
OVCAR-5 ovarian = tested on: OVCAR-5 ovarian
HT29 colon = tested on: HT29 colon
SR leukemia = tested on: SR leukemia
NCI-H460 lung = tested on: NCI-H460 lung
HOP-92 NSCLC = tested on: HOP-92 NSCLC
UACC-257 melanoma = tested on: UACC-257 melanoma
OVCAR-3 ovarian = tested on: OVCAR-3 ovarian

| SMILES | TGI (U251 CNS) [µM] | TGI (RPMI-8226 leukemia) [µM] | TGI (SK-MEL-28 melanoma) [µM] | TGI (NCI-H23 lung) [µM] | TGI (HS 578T breast) [µM] | TGI (SNB-75 CNS) [µM] | TGI (SF-268 CNS) [µM] | TGI (SW-620 colon) [µM] | TGI (HCT-116 colon) [µM] | TGI (MALME-3M melanoma) [µM] | TGI (SK-OV-3 ovarian) [µM] | TGI (NCI-H226 lung) [µM] | TGI (DU-145 prostate) [µM] | TGI (OVCAR-5 ovarian) [µM] | TGI (HT29 colon) [µM] | TGI (SR leukemia) [µM] | TGI (NCI-H460 lung) [µM] | TGI (HOP-92 NSCLC) [µM] | TGI (UACC-257 melanoma) [µM] | TGI (OVCAR-3 ovarian) [µM] |
| --- | --- | --- | --- | --- | --- | --- | --- | --- | --- | --- | --- | --- | --- | --- | --- | --- | --- | --- | --- | --- |
| N#Cc1c(-c2ccccc2)[nH]c2ccc(Cl)cc2c1=O | 75.9 | > 100 | > 100 | > 100 | > 100 | > 100 | > 100 | > 100 | > 100 | > 100 | > 100 | > 100 | > 100 | > 100 | > 100 | > 100 | > 100 | 51.1 | > 100 | > 100 |
| CCOC(=O)c1c(N2CCOCC2)[nH]c(=O)c(C(c2c(Cl)cccc2Cl)c2c(O)c(C(=O)OCC)c(N3CCOCC3)[nH]c2=O)c1O | 15.8 | 5.27 | 4.19 | 21.8 | 19.4 | 15.6 | 22.2 | 3.11 | 8.83 | 7.91 | 24.9 | 27.3 | 24.6 | 27.5 | 12.9 | 15.9 | 45.2 | 8.56 | 18.7 | 12.1 |
| O=C(N/N=C\C=C\c1ccc([N+](=O)[O-])o1)C(=O)N/N=C\C=C\c1ccc([N+](=O)[O-])o1 | > 100 | > 100 | > 100 | > 100 | > 100 | > 100 | > 100 | 58.8 | > 100 | > 100 | > 100 | > 100 | > 100 | > 100 | > 100 | > 100 | > 100 | > 100 | > 100 | 55 |
| Clc1ccc(-c2cc3nc4ccccc4nc3o2)cc1 | > 100 | > 100 | > 100 | > 100 | > 100 | 48.3 | > 100 | > 100 | > 100 | > 100 | > 100 | > 100 | > 100 | > 100 | > 100 | > 100 | > 100 | > 100 | > 100 | > 100 |
| COc1cc2cc3c4cc(OC)c(OC)cc4cc[n+]3c(C)c2cc1OC (tested in a mixture with another compound) | > 100 | > 100 | > 100 | > 100 | > 100 | > 88.3 | > 95 | > 100 | > 100 | > 100 | > 100 | > 45.6 | > 100 | > 100 | > 69.1 | > 100 | > 100 | > 100 | > 55.5 | > 100 |
